The target in this assay is T1, R87D THIK-1 single channels (Homo sapiens, UniProt Q9HB14, R87D).
T1 construct: expressed in transfected cells; host or cells: Xenopus oocytes (mRNA injection)
The assay can be described thus: Single-channel excised patch recordings of R87D THIK-1 at -100 mV with halothane. Type of assay: cell-based. The method, then: Two-electrode voltage–clamp (TEVC) studies were performed in Xenopus oocytes. All animal use conformed to the Guide for the Care and Use of Laboratory Animals (NIH Publication 85–23), and all experiments using Xenopus toads were approved by the local ethics panels. Oocytes were stored at 17 °C in ND96 recording solution composed of (in mM): 96 NaCl, 2 KCl, 1.8 CaCl2, 1 MgCl2, 5 HEPES (pH 7.5 adjusted with NaOH and HCl), supplemented with Na-pyruvate (275 mg L^–1), theophylline (90 mg L^–1) and gentamicin (50 mg L^–1). Oocytes were injected with 1 ng mRNA for WT or mutant channels, and were incubated for 24–48 h at 17 °C. Two-electrode voltage clamp recordings were then performed as previously described[42],[43]. […] Currents were recorded with an EPC10 amplifier (HEKA Electronics) and sampled at 10 kHz or higher, with filtering set to 3 kHz (–3 dB) or higher, as appropriate for sampling rate. For measurements of GPCR activation, whole-cell currents were recorded for THIK-1 in transiently transfected HEK-293 cells. […] Single-channel currents were recorded with an Axopatch 200B amplifier through a Digidata 1440A digitizer (Molecular Devices). Data were filtered at 2 kHz and recorded at a 200-kHz sampling rate with the program Clampex (Molecular Devices). […]

T1 sequence (Q9HB14 whole entry R87D): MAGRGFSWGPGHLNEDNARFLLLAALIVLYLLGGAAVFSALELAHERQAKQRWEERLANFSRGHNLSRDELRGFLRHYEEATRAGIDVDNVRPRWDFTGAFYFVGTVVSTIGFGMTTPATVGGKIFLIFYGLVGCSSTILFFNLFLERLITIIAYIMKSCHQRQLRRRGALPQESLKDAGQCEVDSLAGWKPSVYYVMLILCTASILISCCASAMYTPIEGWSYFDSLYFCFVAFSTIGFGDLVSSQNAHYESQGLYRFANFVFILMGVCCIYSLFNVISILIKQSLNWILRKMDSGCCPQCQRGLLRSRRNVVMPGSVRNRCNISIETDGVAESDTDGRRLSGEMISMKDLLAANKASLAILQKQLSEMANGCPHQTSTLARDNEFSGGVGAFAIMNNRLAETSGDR

As to `FC(F)(F)C(Cl)Br` (centres unmarked) [halothane], the decrease in activity is reported as 30% (0.4% halothane) and 75% (1% halothane).

Values taken from paper PMC12263422, “Cryo-EM structure of the human THIK-1 K2P K^+ channel reveals a lower Y gate regulated by lipids and anesthetics” (Nature Structural & Molecular Biology, 2025).
